{"source": "patent US10399945B2", "about": "“Tetrahydronaphthyl urea derivative” (MOCHIDA PHARMACEUTICAL CO., LTD., priority 2017, dated 2019)", "biological_target": "Human TrkA Protein (Homo sapiens (Human), UniProt P04629)", "sequence (P04629 33-796)": "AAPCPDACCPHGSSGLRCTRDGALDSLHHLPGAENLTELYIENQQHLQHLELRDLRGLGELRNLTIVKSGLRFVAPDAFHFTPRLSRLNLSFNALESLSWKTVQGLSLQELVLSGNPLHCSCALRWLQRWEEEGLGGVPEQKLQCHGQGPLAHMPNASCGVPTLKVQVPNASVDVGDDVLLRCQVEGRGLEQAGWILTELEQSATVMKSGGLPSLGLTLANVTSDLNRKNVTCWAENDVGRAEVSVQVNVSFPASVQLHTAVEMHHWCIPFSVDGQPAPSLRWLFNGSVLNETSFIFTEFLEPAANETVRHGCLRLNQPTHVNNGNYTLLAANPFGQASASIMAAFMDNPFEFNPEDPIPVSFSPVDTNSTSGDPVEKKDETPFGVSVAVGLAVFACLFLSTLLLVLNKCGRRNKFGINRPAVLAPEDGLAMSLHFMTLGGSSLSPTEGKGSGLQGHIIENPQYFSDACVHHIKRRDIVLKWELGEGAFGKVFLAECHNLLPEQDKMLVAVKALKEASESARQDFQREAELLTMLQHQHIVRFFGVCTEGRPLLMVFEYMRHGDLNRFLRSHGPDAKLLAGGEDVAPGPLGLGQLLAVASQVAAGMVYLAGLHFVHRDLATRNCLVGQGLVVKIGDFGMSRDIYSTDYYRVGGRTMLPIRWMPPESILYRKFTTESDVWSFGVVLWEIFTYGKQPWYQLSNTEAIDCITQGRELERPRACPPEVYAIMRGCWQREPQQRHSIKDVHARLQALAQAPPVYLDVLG", "assay": "Evaluation of Binding Activity for Human TrkA Protein (TrkA LanthaScreen Eu Kinase Binding Assay)", "settings": "TrkA enzyme, Kinase Tracer 236, TR-FRET, 60 minutes at room temperature", "description": "(Pharmacological Experimental Example 1): Evaluation of Binding Activity for Human TrkA Protein\nMeasurement was carried out using TrkA LanthaScreen (registered trademark) Eu Kinase Binding Assay (ThermoFisher SCIENTIFIC). To a 384 well plate (Corning), 2.5 μL of the test compound having various concentrations and diluted with Kinase buffer (ThermoFisher SCIENTIFIC) and 2.5 μL of 15 nM TrkA enzyme (ThermoFisher SCIENTIFIC) were added. Moreover, […] Eu-anti-His Tag antibody (ThermoFisher SCIENTIFIC) and 5 μL of 30 nM Kinase (registered trademark) Tracer 236 (ThermoFisher SCIENTIFIC) were added, followed by reaction at room temperature for 60 minutes. After the reaction, the fluorescence intensity of Europium (Emission wavelength 615 nm) and TR-FRET (Emission wavelength 665 nm) with an excitation wavelength of 340 nm were measured with EnVision 2100 (PerkinElmer) to calculate the fluorescence ratio as the amount of the test compound and the TrkA enzyme bonded. The inhibitory activity (IC50 value) of each test compound was calculated with the fluorescence ratio of the well to which a solvent was added instead of the test compound being 0% and the fluorescence ratio of the well without addition of the TrkA protein being 100%.\nIn Table 1, […] mean Compounds 1 to 62 synthesized in accordance with Examples 1 to 62 described later."}
{"molecule": "Cc1cc(NC(=O)N[C@@H]2c3cc(F)c(F)cc3C(C)(C)C[C@H]2O)c(C2CCOCC2)nc1C(=O)NCC(C)(C)O", "note": "(racemic) [Compound 60, rac-5-(3-((1R,2R)-6,7-difluoro-2-hydroxy-4,4-dimethyl-1,2,3,4-tetrahydronaphthalen-1-yl)ureido)-N-(2-hydroxy-2-methylpropyl)-3-methyl-6-(tetrahydro-2H-pyran-4-yl)picolinamide]", "values": [{"measurement": "IC50", "result": "50 to 1000", "unit": "nM"}]}
{"molecule": "Cc1cc(NC(=O)N[C@@H]2c3cc(F)c(F)cc3C(C)(C)C[C@H]2O)c(C2CCOCC2)nc1-c1cn[nH]c1", "note": "(racemic) [Compound 61, rac-1-((1R,2R)-6,7-difluoro-2-hydroxy-4,4-dimethyl-1,2,3,4-tetrahydronaphthalen-1-yl)-3-(5-methyl-6-(1H-pyrazol-4-yl)-2-(tetrahydro-2H-pyran-4-yl)pyridin-3-yl)urea]", "values": [{"measurement": "IC50", "result": "50 to 1000", "unit": "nM"}]}
{"molecule": "Cc1cc(NC(=O)N[C@@H]2c3cc(F)c(F)cc3C(C)(C)C[C@H]2O)c(C2CCOCC2)nc1-c1cn[nH]c1", "note": "(racemic) [Compound 61a]", "values": [{"measurement": "IC50", "result": "50 to 1000", "unit": "nM"}]}
{"molecule": "Cc1cc(NC(=O)N[C@@H]2c3cc(F)c(F)cc3C(C)(C)C[C@H]2O)c(C2CCOCC2)nc1-c1cnc(O)nc1", "note": "(racemic) [Compound 62, rac-1-((1R,2R)-6,7-difluoro-2-hydroxy-4,4-dimethyl-1,2,3,4-tetrahydronaphthalen-1-yl)-3-(6-(2-hydroxypyrimidin-5-yl)-5-methyl-2-(tetrahydro-2H-pyran-4-yl)pyridin-3-yl)urea]", "values": [{"measurement": "IC50", "result": "50 to 1000", "unit": "nM"}]}
{"molecule": "Cc1cnc(-c2ccccc2)c(NC(=O)N[C@@H]2c3ccccc3C(C)(C)C[C@H]2O)c1", "note": "[Compound 7, 1-((1R,2R)-2-hydroxy-4,4-dimethyl-1,2,3,4-tetrahydronaphthalen-1-yl)-3-(5-methyl-2-phenylpyridin-3-yl)urea]", "values": [{"measurement": "IC50", "result": "≤ 50", "unit": "nM"}]}
{"molecule": "Cc1cc(NC(=O)N[C@@H]2c3ccccc3C(C)(C)C[C@H]2O)c(-c2ccccc2)nc1CO", "note": "[Compound 8, 1-((1R,2R)-2-hydroxy-4,4-dimethyl-1,2,3,4-tetrahydronaphthalen-1-yl)-3-(6-(hydroxymethyl)-5-methyl-2-phenylpyridin-3-yl)urea]", "values": [{"measurement": "IC50", "result": "≤ 50", "unit": "nM"}]}
{"molecule": "Cc1ncc(-c2nc(-c3ccccc3)c(NC(=O)N[C@@H]3c4ccccc4C(C)(C)C[C@H]3O)cc2C)cn1", "note": "[Compound 9, 1-((1R,2R)-2-hydroxy-4,4-dimethyl-1,2,3,4-tetrahydronaphthalen-1-yl)-3-(5-methyl-6-(2-methylpyrimidin-5-yl)-2-phenylpyridin-3-yl)urea]", "values": [{"measurement": "IC50", "result": "≤ 50", "unit": "nM"}]}
{"molecule": "Cc1cc(NC(=O)N[C@@H]2c3ccccc3C(C)(C)C[C@H]2O)c(-c2ccccc2)nc1-c1cnn(C)c1", "note": "[Compound 10, 1-((1R,2R)-2-hydroxy-4,4-dimethyl-1,2,3,4-tetrahydronaphthalen-1-yl)-3-(5-methyl-6-(1-methyl-1H-pyrazol-4-yl)-2-phenylpyridin-3-yl)urea]", "values": [{"measurement": "IC50", "result": "≤ 50", "unit": "nM"}]}
{"molecule": "Cc1cc(NC(=O)N[C@@H]2c3ccccc3C(C)(C)C[C@H]2O)c(-c2ccccc2)nc1-c1cncc(C(F)(F)F)c1", "note": "[Compound 11, 1-((1R,2R)-2-hydroxy-4,4-dimethyl-1,2,3,4-tetrahydronaphthalen-1-yl)-3-(3-methyl-6-phenyl-5′-(trifluoromethyl)-[2,3′-bipyridin]-5-yl)urea]", "values": [{"measurement": "IC50", "result": "≤ 50", "unit": "nM"}]}
{"molecule": "Cc1ccc(-c2nc(-c3ccccc3)c(NC(=O)N[C@@H]3c4ccccc4C(C)(C)C[C@H]3O)cc2C)cn1", "note": "[Compound 12, 1-(3,6′-dimethyl-6-phenyl-[2,3′-bipyridin]-5-yl)-3-((1R,2R)-2-hydroxy-4,4-dimethyl-1,2,3,4-tetrahydronaphthalen-1-yl)urea]", "values": [{"measurement": "IC50", "result": "≤ 50", "unit": "nM"}]}
{"molecule": "Cc1cc(NC(=O)N[C@@H]2c3ccccc3C(C)(C)C[C@H]2O)c(-c2ccccc2)nc1-c1ccc(C#N)nc1", "note": "[Compound 13, 1-(6′-cyano-3-methyl-6-phenyl-[2,3′-bipyridin]-5-yl)-3-((1R,2R)-2-hydroxy-4,4-dimethyl-1,2,3,4-tetrahydronaphthalen-1-yl)urea]", "values": [{"measurement": "IC50", "result": "≤ 50", "unit": "nM"}]}
{"molecule": "Cc1cc(NC(=O)N[C@@H]2c3ccccc3C(C)(C)C[C@H]2O)c(-c2ccccc2)nc1-c1ccc(S(C)(=O)=O)nc1", "note": "[Compound 14, 1-((1R,2R)-2-hydroxy-4,4-dimethyl-1,2,3,4-tetrahydronaphthalen-1-yl)-3-(3-methyl-6′-(methylsulfonyl)-6-phenyl-[2,3′-bipyridin]-5-yl)urea]", "values": [{"measurement": "IC50", "result": "≤ 50", "unit": "nM"}]}
{"molecule": "Cc1cc(NC(=O)N[C@@H]2c3ccccc3C(C)(C)C[C@H]2O)c(-c2ccccc2)nc1-c1cnc(C(F)(F)F)nc1", "note": "[Compound 15, 1-((1R,2R)-2-hydroxy-4,4-dimethyl-1,2,3,4-tetrahydronaphthalen-1-yl)-3-(5-methyl-2-phenyl-6-(2-(trifluoromethyl)pyrimidin-5-yl)pyridin-3-yl)urea]", "values": [{"measurement": "IC50", "result": "≤ 50", "unit": "nM"}]}
{"molecule": "Cc1cc(NC(=O)N[C@@H]2c3ccccc3C(C)(C)C[C@H]2O)c(-c2ccccc2)nc1-c1ccc(C#N)cc1", "note": "[Compound 16, 1-(6-(4-cyanophenyl)-5-methyl-2-phenylpyridin-3-yl)-3-((1R,2R)-2-hydroxy-4,4-dimethyl-1,2,3,4-tetrahydronaphthalen-1-yl)urea]", "values": [{"measurement": "IC50", "result": "≤ 50", "unit": "nM"}]}
{"molecule": "Cc1cc(NC(=O)N[C@@H]2c3ccccc3C(C)(C)C[C@H]2O)c(-c2ccccc2)nc1-c1ccnc(C(F)(F)F)c1", "note": "[Compound 17, 1-((1R,2R)-2-hydroxy-4,4-dimethyl-1,2,3,4-tetrahydronaphthalen-1-yl)-3-(3-methyl-6-phenyl-2′-(trifluoromethyl)-[2,4′-bipyridin]-5-yl)urea]", "values": [{"measurement": "IC50", "result": "≤ 50", "unit": "nM"}]}
{"molecule": "Cc1cc(NC(=O)N[C@@H]2c3ccccc3C(C)(C)C[C@H]2O)c(-c2ccccc2)nc1-c1cn[nH]c1", "note": "[Compound 18, 1-((1R,2R)-2-hydroxy-4,4-dimethyl-1,2,3,4-tetrahydronaphthalen-1-yl)-3-(5-methyl-2-phenyl-6-(1H-pyrazol-4-yl)pyridin-3-yl)urea]", "values": [{"measurement": "IC50", "result": "≤ 50", "unit": "nM"}]}
{"molecule": "Cc1cc(NC(=O)N[C@@H]2c3ccccc3C(C)(C)C[C@H]2O)c(-c2ccccc2)nc1-c1cnc(O)nc1", "note": "[Compound 19, 1-((1R,2R)-2-hydroxy-4,4-dimethyl-1,2,3,4-tetrahydronaphthalen-1-yl)-3-(6-(2-hydroxypyrimidin-5-yl)-5-methyl-2-phenylpyridin-3-yl)urea]", "values": [{"measurement": "IC50", "result": "≤ 50", "unit": "nM"}]}
{"molecule": "Cc1cc(NC(=O)N[C@@H]2c3ccccc3C(C)(C)C[C@H]2O)c(-c2ccccc2)nc1-c1ccc(O)nc1", "note": "[Compound 20, 1-(6′-hydroxy-3-methyl-6-phenyl-[2,3′-bipyridin]-5-yl)-3-((1R,2R)-2-hydroxy-4,4-dimethyl-1,2,3,4-tetrahydronaphthalen-1-yl)urea]", "values": [{"measurement": "IC50", "result": "≤ 50", "unit": "nM"}]}
{"molecule": "Cc1cc(NC(=O)N[C@@H]2c3ccccc3C(C)(C)C[C@H]2O)c(-c2ccccc2)nc1-c1cnc(C(C)(C)O)nc1", "note": "[Compound 21, 1-((1R,2R)-2-hydroxy-4,4-dimethyl-1,2,3,4-tetrahydronaphthalen-1-yl)-3-(6-(2-(2-hydroxypropan-2-yl)pyrimidin-5-yl)-5-methyl-2-phenylpyridin-3-yl)urea]", "values": [{"measurement": "IC50", "result": "≤ 50", "unit": "nM"}]}
{"molecule": "rac-1-((1R,2R)-6,7-difluoro-2-hydroxy-4,4-dimethyl-1,2,3,4-tetrahydronaphthalen-1-yl)-3-(2-(hydroxymethyl)-3-methyl-6-phenyl-[2,4′-bipyridin]-5-yl)urea [Compound 56]", "values": [{"measurement": "IC50", "result": "≤ 50", "unit": "nM"}]}
